Results published in patent publication US20110039896A1, “NOVEL 2-PYRROLIDINYL-3-AMIDO-6-AMINO-PYRIDINE DERIVATIVES USEFUL AS POTASSIUM CHANNEL ACTIVATORS” (NeuroSearch A/S, priority 2007, published 2011).

Target: T1, human Kv72+3 channels (Homo sapiens, UniProt O43525+O43526)
T1 construct: expressed in transfected cells
Test: Patch-clamp on HEK293 cells stably expressing human Kv7.2+3 channels
Type: cell-based
Conditions: conc. 0.03 μM, −30 mV, 20 ms, current relative to baseline current defined as 100%, read-out: IK (%)
Source text: The effect obtained by these channel activators is described as a percentage increase in baseline current at a given concentration. The baseline current is defined as 100%, and an increase in current is expressed relative to this, i.e. an increase from 1 nA to 1.2 nA is reported as 120%.

| Structure (SMILES) | activity at 0.03 µM |
| --- | --- |
| O=C(Nc1ccc(NCc2ccc(F)cc2)nc1N1CCCC1)[C@@H]1C[C@H]1c1ccccc1 [Compound 7, (R)-2-Phenyl-cyclopropanecarboxylic acid [6-(4-fluoro-benzylamino)-2-pyrrolidin-1-yl-pyridin-3-yl]-amide] | 192% |
| COc1ccc(CNc2ccc(NC(=O)Cc3cc(F)cc(F)c3)c(N3CCCC3)n2)cc1 [Compound 19] | 842% |
| O=C(Cc1ccc(C(F)(F)F)c(F)c1)Nc1ccc(NCc2ccc(F)cc2)nc1N1CCCC1 [Compound 1, N-[6-(4-Fluoro-benzylamino)-2-pyrrolidin-1-yl-pyridin-3-yl]-2-(3-fluoro-4-trifluoromethyl-phenyl)-acetamide] | 306% |
| N#Cc1ccc(CNc2ccc(NC(=O)Cc3cc(F)cc(F)c3)c(N3CCCC3)n2)cc1 [Compound 17, N-[6-(4-Cyano-benzylamino)-2-pyrrolidin-1-yl-pyridin-3-yl]-2-(3,5-difluoro-phenyl)-acetamide] | 490% |

Now from value to compound:

| activity at 0.03 µM | Structure (SMILES) |
| --- | --- |
| 239% | CC(C)(C)CC(=O)Nc1ccc(NCc2ccc(F)cc2)nc1N1CCCC1 [Compound 9, N-[6-(4-Fluoro-benzylamino)-2-pyrrolidin-1-yl-pyridin-3-yl]-3,3-dimethyl-butyramide] |
| 155% | CC(C)(C)CC(=O)Nc1ccc(NCc2ccc3c(c2)OCO3)nc1N1CCCC1 [Compound 14, N-{6-[(Benzo[1,3]dioxol-5-ylmethyl)-amino]-2-pyrrolidin-1-yl-pyridin-3-yl}-3,3-dimethyl-butyramide] |
